Measurements: the CheMixHub viscosity set
“And” between values parts separate entries of the source, which are not always exact repeats. Identical values can stand only once. ± gives the uncertainty stated by the source.

Assay: xn = mol fraction of the nth substance listed

CCc1ccccc1 + CCCCCC
viscosity [mPa·s], 101 kPa
Settings	x2 = 0.14	x2 = 0.247	x2 = 0.337	x2 = 0.486	x2 = 0.641	x2 = 0.731
298.15 K	0.56 ± 0.015	0.51 ± 0.014	0.47 ± 0.013	0.416 ± 0.012	–	0.339 ± 0.009
308.15 K	0.499 ± 0.014	0.454 ± 0.013	0.421 ± 0.012	0.371 ± 0.01	0.326 ± 0.009	0.302 ± 0.008
323.15 K	0.426 ± 0.012	0.39 ± 0.011	0.363 ± 0.01	0.321 ± 0.009	0.283 ± 0.008	0.263 ± 0.007

CCc1ccccc1 + c1ccccc1
Settings	viscosity
293.15 K, 101.33 kPa, x2 = 0.2323	0.657 ± 0.0058 mPa·s
293.15 K, 101.33 kPa, x2 = 0.4707	0.646 ± 0.0057 mPa·s
293.15 K, 101.33 kPa, x2 = 0.5427	0.644 ± 0.0057 mPa·s
293.15 K, 101.33 kPa, x2 = 0.7124	0.635 ± 0.0057 mPa·s
293.15 K, 101.33 kPa, x2 = 0.8608	0.64 ± 0.0057 mPa·s
298.15 K, 101.3 kPa, x2 = 0.0268	0.632 ± 0.0054 mPa·s
298.15 K, 101.3 kPa, x2 = 0.1358	0.6249 ± 0.0053 mPa·s
298.15 K, 101.3 kPa, x2 = 0.2562	0.6202 ± 0.0053 mPa·s
298.15 K, 101.3 kPa, x2 = 0.3579	0.6177 ± 0.0053 mPa·s
298.15 K, 101.3 kPa, x2 = 0.4426	0.6157 ± 0.0053 mPa·s
298.15 K, 101.3 kPa, x2 = 0.5472	0.6134 ± 0.0052 mPa·s
298.15 K, 101.3 kPa, x2 = 0.6302	0.6115 ± 0.0052 mPa·s
298.15 K, 101.3 kPa, x2 = 0.7423	0.608 ± 0.0052 mPa·s
298.15 K, 101.3 kPa, x2 = 0.8318	0.6056 ± 0.0052 mPa·s
298.15 K, 101.3 kPa, x2 = 0.9404	0.6027 ± 0.0052 mPa·s
298.15 K, 101.33 kPa, x1 = 0.1	0.599 ± 0.016 mPa·s
298.15 K, 101.33 kPa, x1 = 0.2	0.601 ± 0.006 mPa·s and 0.601 ± 0.016 mPa·s
298.15 K, 101.33 kPa, x1 = 0.4	0.603 ± 0.016 mPa·s
298.15 K, 101.33 kPa, x1 = 0.5	0.607 ± 0.0061 mPa·s and 0.607 ± 0.016 mPa·s
298.15 K, 101.33 kPa, x1 = 0.6	0.608 ± 0.016 mPa·s
298.15 K, 101.33 kPa, x1 = 0.8	0.616 ± 0.017 mPa·s
298.15 K, 101.33 kPa, x2 = 0.145	0.6185 ± 0.0062 mPa·s
298.15 K, 101.33 kPa, x2 = 0.2147	0.6165 ± 0.0062 mPa·s
298.15 K, 101.33 kPa, x2 = 0.2942	0.6156 ± 0.0062 mPa·s
298.15 K, 101.33 kPa, x2 = 0.4187	0.6078 ± 0.0061 mPa·s
298.15 K, 101.33 kPa, x2 = 0.4944	0.6057 ± 0.0061 mPa·s
298.15 K, 101.33 kPa, x2 = 0.5926	0.6038 ± 0.006 mPa·s
298.15 K, 101.33 kPa, x2 = 0.6887	0.6029 ± 0.006 mPa·s
298.15 K, 101.33 kPa, x2 = 0.7786	0.6012 ± 0.006 mPa·s
298.15 K, 101.33 kPa, x2 = 0.8938	0.6006 ± 0.006 mPa·s
298.15 K, 101.33 kPa, x2 = 0.9568	0.6008 ± 0.006 mPa·s
303.15 K, 101.3 kPa, x2 = 0.1358	0.5881 ± 0.0051 mPa·s
303.15 K, 101.3 kPa, x2 = 0.2562	0.5827 ± 0.005 mPa·s
303.15 K, 101.3 kPa, x2 = 0.3579	0.5777 ± 0.005 mPa·s
303.15 K, 101.3 kPa, x2 = 0.4426	0.5744 ± 0.005 mPa·s
303.15 K, 101.3 kPa, x2 = 0.5472	0.571 ± 0.005 mPa·s
303.15 K, 101.3 kPa, x2 = 0.6302	0.5678 ± 0.005 mPa·s
303.15 K, 101.3 kPa, x2 = 0.7423	0.5637 ± 0.0049 mPa·s
303.15 K, 101.3 kPa, x2 = 0.8318	0.5608 ± 0.0049 mPa·s
303.15 K, 101.3 kPa, x2 = 0.9404	0.5574 ± 0.0049 mPa·s
303.15 K, 101.33 kPa, x2 = 0.2323	0.583 ± 0.0053 mPa·s
303.15 K, 101.33 kPa, x2 = 0.4707	0.57 ± 0.0052 mPa·s
303.15 K, 101.33 kPa, x2 = 0.5427	0.568 ± 0.0052 mPa·s
303.15 K, 101.33 kPa, x2 = 0.7124	0.56 ± 0.0051 mPa·s
303.15 K, 101.33 kPa, x2 = 0.8608	0.561 ± 0.0051 mPa·s
308.15 K, 101.33 kPa, x1 = 0.1	0.528 ± 0.014 mPa·s
308.15 K, 101.33 kPa, x1 = 0.2	0.53 ± 0.014 mPa·s
308.15 K, 101.33 kPa, x1 = 0.4	0.535 ± 0.014 mPa·s
308.15 K, 101.33 kPa, x1 = 0.6	0.542 ± 0.015 mPa·s
308.15 K, 101.33 kPa, x1 = 0.8	0.551 ± 0.015 mPa·s
313.15 K, 101.33 kPa, x2 = 0.2323	0.521 ± 0.0048 mPa·s
313.15 K, 101.33 kPa, x2 = 0.5427	0.506 ± 0.0047 mPa·s
313.15 K, 101.33 kPa, x2 = 0.7124	0.498 ± 0.0046 mPa·s
313.15 K, 101.33 kPa, x2 = 0.8608	0.493 ± 0.0046 mPa·s
318.15 K, 101.33 kPa, x1 = 0.1	0.468 ± 0.013 mPa·s
318.15 K, 101.33 kPa, x1 = 0.2	0.471 ± 0.013 mPa·s
318.15 K, 101.33 kPa, x1 = 0.4	0.477 ± 0.013 mPa·s
318.15 K, 101.33 kPa, x1 = 0.5	0.481 ± 0.013 mPa·s
318.15 K, 101.33 kPa, x1 = 0.6	0.484 ± 0.013 mPa·s
318.15 K, 101.33 kPa, x1 = 0.8	0.492 ± 0.013 mPa·s
318.15 K, 101.33 kPa, x2 = 0.145	0.4939 ± 0.0049 mPa·s
318.15 K, 101.33 kPa, x2 = 0.2147	0.4912 ± 0.0049 mPa·s
318.15 K, 101.33 kPa, x2 = 0.2942	0.4912 ± 0.0049 mPa·s
318.15 K, 101.33 kPa, x2 = 0.4187	0.4812 ± 0.0048 mPa·s
318.15 K, 101.33 kPa, x2 = 0.4944	0.4774 ± 0.0048 mPa·s
318.15 K, 101.33 kPa, x2 = 0.5926	0.4737 ± 0.0047 mPa·s
318.15 K, 101.33 kPa, x2 = 0.6887	0.469 ± 0.0047 mPa·s
318.15 K, 101.33 kPa, x2 = 0.7786	0.4657 ± 0.0047 mPa·s
318.15 K, 101.33 kPa, x2 = 0.8938	0.4621 ± 0.0046 mPa·s
318.15 K, 101.33 kPa, x2 = 0.9568	0.4607 ± 0.0046 mPa·s
323.15 K, 101.33 kPa, x1 = 0.1	0.44 ± 0.012 mPa·s
323.15 K, 101.33 kPa, x1 = 0.2	0.443 ± 0.0044 mPa·s and 0.443 ± 0.012 mPa·s
323.15 K, 101.33 kPa, x1 = 0.4	0.449 ± 0.012 mPa·s
323.15 K, 101.33 kPa, x1 = 0.5	0.453 ± 0.0045 mPa·s and 0.453 ± 0.012 mPa·s
323.15 K, 101.33 kPa, x1 = 0.6	0.456 ± 0.012 mPa·s
323.15 K, 101.33 kPa, x1 = 0.8	0.466 ± 0.013 mPa·s
323.15 K, 101.33 kPa, x2 = 0.2323	0.469 ± 0.0044 mPa·s
323.15 K, 101.33 kPa, x2 = 0.4707	0.456 ± 0.0043 mPa·s
323.15 K, 101.33 kPa, x2 = 0.5427	0.453 ± 0.0043 mPa·s
323.15 K, 101.33 kPa, x2 = 0.7124	0.443 ± 0.0042 mPa·s
323.15 K, 101.33 kPa, x2 = 0.8608	0.44 ± 0.0042 mPa·s

CCOP(=O)(OCC)OCC + CC(=O)N(C)C
298.15 K, 101.3 kPa
Settings	viscosity [mPa·s]
x1 = 0.1085	0.997 ± 0.021
x1 = 0.2118	1.066 ± 0.021
x1 = 0.3173	1.133 ± 0.021
x1 = 0.4275	1.199 ± 0.021
x1 = 0.5277	1.257 ± 0.021
x1 = 0.5946	1.294 ± 0.021
x1 = 0.7173	1.36 ± 0.022
x1 = 0.8144	1.41 ± 0.022
x1 = 0.8998	1.456 ± 0.022

COCCOCCOCCOCCOC + CC1COC(=O)O1
298.15 K, 101.33 kPa
Settings	viscosity [mPa·s]
x1 = 0.0021	2.505 ± 0.039
x1 = 0.0047	2.51 ± 0.039
x1 = 0.0111	2.543 ± 0.04
x1 = 0.0248	2.604 ± 0.041
x1 = 0.0362	2.663 ± 0.041
x1 = 0.0516	2.716 ± 0.042
x1 = 0.0765	2.814 ± 0.044
x1 = 0.1064	2.935 ± 0.046
x1 = 0.1537	3.083 ± 0.048
x1 = 0.1752	3.145 ± 0.049
x1 = 0.2194	3.268 ± 0.05
x1 = 0.259	3.355 ± 0.052
x1 = 0.3006	3.428 ± 0.053
x1 = 0.3585	3.506 ± 0.054
x1 = 0.3967	3.56 ± 0.055
x1 = 0.4451	3.59 ± 0.055
x1 = 0.4956	3.602 ± 0.055
x1 = 0.5433	3.607 ± 0.056
x1 = 0.6081	3.609 ± 0.056
x1 = 0.6396	3.615 ± 0.056
x1 = 0.7173	3.588 ± 0.055
x1 = 0.782	3.559 ± 0.055
x1 = 0.8311	3.541 ± 0.055
x1 = 0.896	3.498 ± 0.054
x1 = 0.9403	3.466 ± 0.053

COCCOCCOCCOCCOC + CCCC(C)O
viscosity [mPa·s], 101 kPa
Settings	x1 = 0.0055	x1 = 0.0094	x1 = 0.0147	x1 = 0.0256	x1 = 0.0397	x1 = 0.0606	x1 = 0.0791	x1 = 0.0929	x1 = 0.1008
298.15 K	3.301 ± 0.058	3.26 ± 0.057	3.223 ± 0.057	3.071 ± 0.054	2.91 ± 0.051	2.75 ± 0.048	2.641 ± 0.046	2.58 ± 0.045	2.55 ± 0.045
308.15 K	2.291 ± 0.041	2.274 ± 0.041	2.25 ± 0.04	2.203 ± 0.039	2.117 ± 0.038	2.046 ± 0.036	1.977 ± 0.035	1.94 ± 0.034	1.91 ± 0.034
318.15 K	1.658 ± 0.03	1.638 ± 0.03	1.631 ± 0.03	1.622 ± 0.029	1.575 ± 0.029	1.533 ± 0.028	1.524 ± 0.027	1.497 ± 0.027	1.48 ± 0.027
